{
  "source": "patent US11419827B2",
  "about": "“Protecting tissue and mitigating injury from radiation-induced ionizing events” (Humanetics Corporation, priority 2017, dated 2022)",
  "key": {"[1]": {"conditions": "in several pharmaceutically acceptable solvents; cited from earlier work"}, "p53 and γH2AX": {"system": "p53 and γH2AX", "assay": "Western blot for DNA damage markers p53 and γH2AX in heart and lung tissue of mice exposed to 6 Gy high LET proton radiation", "format": "in vivo", "conditions": "200 mg/kg s.c. 24 hours before 6 Gy high LET proton radiation, tissues harvested 3 days later, vs tubulin control", "procedure": "FIG. 2 is a western blot with heart and lung tissue extracted from animals that were treated with or without genistein [200 mg/kg subcutaneously (s.c.)] and then exposed to 6 Gy high LET proton radiation 24 hours after treatment. The indicated tissues were harvested 3 days later. The levels of p53 (a DNA damage response protein) and γH2AX (a direct measurement of DNA damage) were measured and compared to a tubulin control.\n(§1) Mice were prophylactically administered genistein (200 mg/kg) via s.c. injection 24 hours prior to radiation exposure. Appropriate sham radiation and vehicle controls were applied. Radiation exposures of 6 Gy with high-LET protons [50 MeV fully modulated spread-out Bragg peak (SOBP)] were utilized. The following parameters were examined:\nDNA damage in tissues—Lungs and heart were surgically removed and subjected to thin-slice sectioning, followed by western blot analysis for the DNA damage markers p53 and γH2AX (an effective measure of proton radiation-induced biological damage; see, Liu et al., Radiation Oncology 91(5):1081-1089, 2015), as well as tubulin control."}, "[2]": {"system": "CXCL1 cytokine, G-CSF, TNFα", "assay": "Multi-cytokine LUMINEX panel on peripheral blood of mice exposed to 6 Gy high LET proton radiation", "format": "in vivo", "conditions": "200 mg/kg s.c. 24 hours before 6 Gy high LET proton radiation; blood taken 3, 6 and 12 days after exposure", "procedure": "FIGS. 4A, 4B, and 4C are graphs plotting the levels of CXCL1 cytokine (FIG. 4A), granulocyte colony stimulating factor (G-CSF; FIG. 4B), and tumor necrosis factor alpha (TNFα; FIG. 4C) in blood from mice injected with 200 mg/kg genistein (s.c.) 24 hours prior to exposure to 6 Gy high LET proton radiation. In these experiments, blood was drawn from mice on the indicated days following radiation exposure, and the levels of cytokines were assayed.\nas §1\nCytokine response—Peripheral blood was taken from the treated and irradiated mice 3, 6, and 12 days after radiation exposure, and assessed using a multi-cytokine LUMINEX® panel to evaluate the global inflammatory cytokine response."}, "Human cardiomyocytes": {"system": "Human cardiomyocytes", "assay": "Live cell counts of human cardiomyocytes after mixed field (32% neutron, 68% gamma) radiation", "format": "cell-based", "conditions": "treated 24 hours before exposure to various doses of MF radiation; counts 3 days after exposure", "procedure": "FIG. 5 is a graph plotting the number of live human cardiomyocytes after treatment of the cells with genistein 24 hours before exposure to various doses of mixed field (32% neutron, 68% gamma) radiation (henceforth referred to as “MF” radiation). Live cell counts were performed 3 days after radiation exposure.\nHuman cardiomyocytes were treated with genistein 24 hours before exposure to various doses of mixed field (“MF,” 32% neutron, 68% gamma) radiation. Live cell counts were performed 3 days after radiation exposure."}},
  "note": "Entries after “also recorded” stand apart in the source; their conditions may differ.",
  "data": [
    {"smiles": "O=c1c(-c2ccc(O)cc2)coc2cc(O)cc(O)c12", "note": "[genistein, 5,7-dihydroxy-3-(4-hydroxyphenyl)-chromen-4-one]", "values": [
      {"measurement": "solubility", "setting": "[1]", "value": "low to virtually no solubility"},
      {"measurement": "p53 levels in response to radiation exposure", "setting": "p53 and γH2AX", "value": "prevented a marked increase in p53 levels"},
      {"measurement": "p53 levels in response to radiation exposure", "setting": "p53 and γH2AX; listed as Genistein", "value": "ameliorated the effects of proton radiation"},
      {"measurement": "γH2AX levels", "setting": "p53 and γH2AX; listed as Genistein", "value": "lower levels of γH2AX; also recorded: ameliorated the effects of proton radiation"},
      {"measurement": "expression of CXCL1 cytokine in blood", "setting": "[2]", "value": "mitigated the effects of proton radiation"},
      {"measurement": "expression of G-CSF in blood", "setting": "[2]", "value": "mitigated the effects of proton radiation"},
      {"measurement": "expression of TNFα in blood", "setting": "[2]", "value": "mitigated the effects of proton radiation"},
      {"measurement": "survival (live cell counts) after MF radiation", "setting": "Human cardiomyocytes", "value": "increased survival"}
    ]}
  ]
}
